Entries after “also recorded” stand apart in the source; their conditions may differ.
Tests used:
[1] = test system: airways of OVA-sensitized mice; assay: OVA-induced allergic airway inflammation in mice (alcian blue mucus staining, airway cross section, CD45 infiltration); format: in vivo, mouse
Description: Intestinal sections were collected for histological analyses. Mouse airways were fixed by transcardial fixation and were embedded in paraffin or were used as cryosections. For paraffin sections, tissues were fixed in 4% paraformaldehyde (PFA), 0.2% picric acid and 3.4% sucrose in PBS, and were washed in methanol before embedding in paraffin. Sections were stained according to standard Periodic acid-Schiff (PAS) or Alcian Blue methods and assessed by light microscopy.
Mouse models were performed according to the previous example. For investigating mucus, IL-8 release, and leukocytes, tissues were fixed using 4% paraformaldehyde (PFA), 0.2% picric acid and 3.4% sucrose in PBS and washed in methanol before embedding in paraffin. Mucus was analyzed using standard Periodic acid-Schiff (PAS) or alcian blue staining. MUC5AC was stained using anti-MUC5AC mouse antibody (1:200, Abcam, ab3649) and a secondary antibody conjugated with Alexa488 (Life Technologies, A-21206). Nuclei were stained with Hoe33342 (0.1 μg/ml PBS, Aplichem, Darmstadt, Germany). Quantikine ELISA kits (R&D systems) were used to measure secretion of the cytokine IL-8 by Calu3 cells.
All methods were performed as described in the previous examples. Mice were treated with ovalbumin (OVA) to induce an allergic reaction which leads to airway inflammation. […] After allergization with OVA and development of airway inflammation, excessive mucus production and inflammatory infiltration with immune cells is observed. Activation of cholinergic receptors using the muscarinic agonist carbachol (CCH) results in constriction of the airways and secretion of mucus (FIG. 5A-C). 3-day treatment using niclosamide reduced the CCH-induced constriction of the airways (FIG. 1). Furthermore, mucus secretion and inflammatory infiltrates were reduced.
OVA-induced allergic airway inflammation in mice caused pronounced airway goblet cell metaplasia. […] NFA is a well know inhibitor of Ca^2+ activated Cl^− channels and inhibits TMEM16A. The two main TMEM16 paralogs expressed in airway epithelial and smooth muscle cells, TMEM16A and TMEM16F, were expressed in HEK293 cells and the whole cell currents upon activation by the Ca^2+ ionophore ionomycin (Iono) were measured. […] Novel therapeutic strategies for the treatment of inflammatory airway diseases such as CF may therefore consider the use of inhibitors of TMEM16.
The present inventors disclose that airway epithelial knockout of TMEM16A causes a defect in basal, i.e. ATP-mediated mucus secretion. […] Mucus synthesis under inflammatory (OVA) conditions and mucus release upon cholinergic stimulation, however, were not compromised (FIG. 16C). […] Because basal mucus production still occurs in the absence of TMEM16A, other TMEM16 paralogs may also be in charge of mucus synthesis.

TMEM16F = target: T1, TMEM16F (Homo sapiens, UniProt Q4KMQ2); assay: Whole cell currents in HEK293 cells expressing TMEM16F (patch clamp); format: cell-based; conditions: overexpressed TMEM16F; niclosamide 1 μM
T1 construct: expressed in transfected cells; host or cells: HEK293 cells
T1 sequence (Q4KMQ2 1-910): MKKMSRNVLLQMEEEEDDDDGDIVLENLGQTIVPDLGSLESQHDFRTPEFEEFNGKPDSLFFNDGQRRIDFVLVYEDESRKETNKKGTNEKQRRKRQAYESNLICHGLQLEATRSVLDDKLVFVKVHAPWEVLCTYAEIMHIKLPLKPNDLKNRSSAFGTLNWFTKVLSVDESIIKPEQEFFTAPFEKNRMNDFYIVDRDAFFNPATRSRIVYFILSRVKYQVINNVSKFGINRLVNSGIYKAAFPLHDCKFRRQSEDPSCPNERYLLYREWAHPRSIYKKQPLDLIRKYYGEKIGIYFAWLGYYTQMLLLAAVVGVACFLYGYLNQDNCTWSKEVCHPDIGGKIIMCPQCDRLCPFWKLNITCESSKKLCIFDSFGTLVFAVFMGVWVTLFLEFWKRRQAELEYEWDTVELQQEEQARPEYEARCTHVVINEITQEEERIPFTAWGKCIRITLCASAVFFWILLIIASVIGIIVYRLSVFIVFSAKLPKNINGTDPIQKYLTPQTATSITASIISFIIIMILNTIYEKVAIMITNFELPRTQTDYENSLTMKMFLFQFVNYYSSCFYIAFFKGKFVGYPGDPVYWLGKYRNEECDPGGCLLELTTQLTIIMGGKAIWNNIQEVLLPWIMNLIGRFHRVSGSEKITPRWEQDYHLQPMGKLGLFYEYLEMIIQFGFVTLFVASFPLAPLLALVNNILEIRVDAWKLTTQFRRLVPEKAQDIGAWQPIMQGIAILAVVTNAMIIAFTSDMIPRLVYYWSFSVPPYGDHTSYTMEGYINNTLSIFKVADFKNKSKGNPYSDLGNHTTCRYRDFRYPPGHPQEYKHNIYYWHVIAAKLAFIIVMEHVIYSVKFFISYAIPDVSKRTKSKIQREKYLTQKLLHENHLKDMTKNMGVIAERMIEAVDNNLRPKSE
Description: FIG. 14: The TMEM16-inhibitor niflumic acid attenuates inflammatory airway disease. • A,B) OVA-sensitization induced pronounced goblet cell metaplasia as indicated by alcian blue positivity. Exposure to carbachol (CCH, 25 mg/ml, nebulizer) induced release of mucus and airway […]. Bars indicate […]. […] Mean±SEM; *significant inhibition by NFA (paired ttest). # significant difference when compared to OVA (unpaired t-test). (n) number of airways analysed or number of cells examined.
FIG. 15: Inhibition of TMEM16A and TMEM16F by niclosamide. • A) TMEM16A whole cell currents in overexpressing HEK293 cells. […]
OVA-induced allergic airway inflammation in mice caused pronounced airway goblet cell metaplasia. […] The two main TMEM16 paralogs expressed in airway epithelial and smooth muscle cells, TMEM16A and TMEM16F, were expressed in HEK293 cells and the whole cell currents upon activation by the Ca^2+ ionophore ionomycin (Iono) were measured. […]
Similar to TMEM16A, also overexpressed TMEM16F was inhibited by niclosamide (FIG. 15D). […] TMEM16A was activated by ionomycin and TMEM16A currents were measured as iodide quenching.

endogenous TMEM16A = assay: Iodide quenching of YFP in HT29 cells stimulated with ionomycin; format: cell-based
Description: FIG. 15: Inhibition of TMEM16A and TMEM16F by niclosamide. • A) TMEM16A whole cell currents in overexpressing HEK293 cells. […] Rate of YFP quenching (arbitrary units (au/second), when applying 20 mM iodide to the extracellular bath solution. HT29 cells stably overexpressing YFP were stimulated with […] ionomycin. 100,000 cells were seeded/well. Mean±SEM; (number of experiments) #significant inhibition when compared to the absence of the inhibitor (p<0.05; unpaired t-test); *significant activation by UTP (paired t-test).
Similar to TMEM16A, also overexpressed TMEM16F was inhibited by niclosamide (FIG. 15D). The effect of niclosamide was also examined on endogenous TMEM16A expressed in HT29 colonic carcinoma cells, which were stably transfected with iodide-sensitive yellow fluorescent protein (YFP). TMEM16A was activated by ionomycin and TMEM16A currents were measured as iodide quenching.

[2] = test system: mice homozygous for the cystic fibrosis mutation CFTR^deltaF508/deltaF508; format: in vivo; conditions: 13 mg/kg/day intraperitoneally for 7 days, in corn oil; vs sham
Description: Animals were treated for 7 days and subsequently sacrificed. Jejunum was excised, fixed in Carnoy Solution and embedded in paraffin.

O=C(Nc1ccc([N+](=O)[O-])cc1Cl)c1cc(Cl)ccc1O [niclosamide, 5-chloro-N-(2-chloro-4-nitrophenyl)-2-hydroxybenzamide]
inflammatory infiltrates ([1]; OVA-allergized mice, 3-day treatment): reduced
mucus secretion ([1]; OVA-allergized mice, 3-day treatment, CCH): reduced
CCH-induced constriction of the airways ([1]; OVA-allergized mice, 3-day treatment, carbachol (CCH)): reduces
CCH-induced airway contraction ([1]; OVA-sensitized TMEM16A+/+ and TMEM16A−/− mice, intratracheal for three days before CCH): strongly attenuated
mucus synthesis / production ([1]; OVA-sensitized wt (TMEM16A+/+) and TMEM16A−/− mice, intratracheal for three days before CCH): strongly reduced; also recorded: strongly attenuated
OVA-induced mucus production ([1]; wt mice, tracheal instillation, niflumic acid 20 μM or niclosamide 5 μM): strongly reduced; also recorded: inhibited mucus production
TMEM16F current (current/voltage relationship) (TMEM16F): inhibited; also recorded: inhibition
potency compared with CaCCinhAO1 or dichlorophen (endogenous TMEM16A; HT29 YFP iodide quenching): more potent
inhibition of endogenous TMEM16A (iodide quenching of YFP) (endogenous TMEM16A; HT29 cells stably expressing YFP, ionomycin, 20 mM iodide): low nanomolar range
jejunal diameters [2]: smaller
mucus in jejunum (alcian blue) [2]: largely reduced
